Data from US20210393810A1, “DIHYDRAZONE COMPOUNDS HAVING HIGH AFFINITY TO A BETA PROTEIN AND TAU PROTEIN, DERIVATIVES THEREOF AND USE THEREOF” (HTA CO., LTD., priority 2019, published 2021).

Tests used:
[1] = target: T1, Aβ1-42 aggregates (Homo sapiens, UniProt P05067); test: Competitive binding experiment with [125I]IMPY; details: competition with [125I]IMPY, Aβ1-42, 37° C., 3 hours
T1 construct: preparing Aβ1-42 proteins according to the known methods
Method: (1) formulating a 0.1% BSA solution with pH=7.4;
(2) preparing a radioligand [125I] IMPY according to the known methods; formulating [125I] IMPY into a solution of 60000-100000 cpm/100 μL for later use;
(3) formulating the compound to be tested into a 10^−5 to 10^−11 mol/L serially diluted ethanol solution;
(4) preparing Aβ1-42 proteins according to the known methods, and diluting it into an aqueous solution of about 30 nM;
(5) soaking a glass fiber filter membrane in PBS solution containing 0.1% polyethyleneimine for 30 minutes;
(6) adding 100 μL of the test compound solutions with different concentrations and 100 μL of [125I] IMPY solution, 700 μL of BSA solution and 100 μL of Aβ1-42 solution into a 12 mm×75 mm borosilicate glass tube, and vortexing;
(7) incubating with shaking in a constant temperature water bath at 37° C. for 3 hours;
(8) collecting the reaction solution by a multi-head cell collector, and rinsing the reaction solution for three times with 10% ethanol solution;
(9) measuring and counting with a gamma counter;
(10) analyzing and processing data using GraphPrad Prism 5.01 to obtain an affinity constant Ki.
Activity between some compounds and Aβ1-42 aggregates was quantitatively determined by the method.

[2] = Biodistribution experiment in normal mice; assay type: in vivo, mice (ICR, male); details: for biodistribution, blood / biodistribution, brain: normal ICR mice; for clearance from the brain / passage through the blood-brain barrier / time at which the brain uptake reaches its peak: normal mice; for time at which the brain uptake reaches its peak: after injection
Method: Pharmacokinetic properties in mice, especially the initial brain uptake and brain clearance, were studied through distribution experiments in vivo.
5-10 μCi labelled compounds (100 μL physiological saline solution, containing 10% ethanol) were injected into normal mice (ICR, male, 20-22 g, 5 weeks old) through the tail vein (n=5), and mice were decapitated at 2 minutes, 10 minutes, 30 minutes and 60 minutes after injection, respectively, and organs to be tested were took out by dissection, and the wet weight was measured and radioactive counting was conducted. Data is expressed as the percentage of radioactive dose per gram of organ (% ID/g).

[3] = 2 min after tail vein injection
[4] = 10 min after tail vein injection
[5] = 30 min after tail vein injection
[6] = 60 min after tail vein injection

T1 sequence (P05067 672-713): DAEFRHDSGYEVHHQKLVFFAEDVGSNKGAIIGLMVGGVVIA

| SMILES | Ki [1] | biodistribution, blood [2, 3] | biodistribution, blood [2, 4] | biodistribution, blood [2, 5] | biodistribution, blood [2, 6] | biodistribution, brain [2, 3] | biodistribution, brain [2, 4] | biodistribution, brain [2, 5] | biodistribution, brain [2, 6] | clearance from the brain [2] | passage through the blood-brain barrier [2] | time at which the brain uptake reaches its peak [2] |
| --- | --- | --- | --- | --- | --- | --- | --- | --- | --- | --- | --- | --- |
| CNc1ccc(/C=N/N=C/c2ccc(NC)cc2)cc1 [Compound 9] | 45.2 ± 18.4 nM | – | – | – | – | – | – | – | – | – | – | – |
| CCN(CC)c1ccc(/C=N/N=C/c2ccc(N(CC)CC)cc2)cc1 [Compound 11] | 5.1 ± 1.87 nM | – | – | – | – | – | – | – | – | – | – | – |
| C(=N\N=C\c1ccc(N2CCCC2)cc1)/c1ccc(N2CCCC2)cc1 [Compound 13] | 1.2 ± 0.25 nM | – | – | – | – | – | – | – | – | – | – | – |
| C(=N\N=C\c1ccc(N2CCCCC2)cc1)/c1ccc(N2CCCCC2)cc1 [Compound 14] | 1.39 ± 0.25 nM | – | – | – | – | – | – | – | – | – | – | – |
| C(=N\N=C\c1ccc(N2CCOCC2)cc1)/c1ccc(N2CCOCC2)cc1 [Compound 15] | 147 ± 2.06 nM | – | – | – | – | – | – | – | – | – | – | – |
| CN(C)c1ncc(/C=N/N=C/c2cnc(N(C)C)nc2)cn1 [Compound 17] | 124 ± 21.7 nM | – | – | – | – | – | – | – | – | – | – | – |
| CNc1ccc(/C=N/N=C/c2ccc(N(C)C)cc2)cc1 [Compound 36] | 35.1 ± 19.3 nM | – | – | – | – | – | – | – | – | – | – | – |
| CNc1ccc(/C=N/N=C/c2ccc(O)cc2)cc1 [Compound 63] | 277 ± 50.5 nM | – | – | – | – | – | – | – | – | – | – | – |
| CN(C)c1ccc(/C=N/N=C/c2ccc(OCCF)cc2)cc1 [Compound 87] | 5.17 ± 1.4 nM | – | – | – | – | – | – | – | – | – | – | – |
| CNc1ccc(/C=N/N=C/c2ccc(OCCF)cc2)cc1 [Compound 88] | 10.4 ± 6.71 nM | – | – | – | – | – | – | – | – | – | – | – |
| CN(C)c1ccc(/C=N/N=C/c2ccc(OCCOCCF)cc2)cc1 [Compound 89] | 2.45 ± 1.7 nM | – | – | – | – | – | – | – | – | – | – | – |
| CNc1ccc(/C=N/N=C/c2ccc(OCCOCCF)cc2)cc1 [Compound 90] | 8.07 ± 2.89 nM | – | – | – | – | – | – | – | – | – | – | – |
| CN(C)c1ccc(/C=N/N=C/c2ccc(OCCOCCOCCF)cc2)cc1 [Compound 91] | 6.38 ± 0.72 nM | – | – | – | – | – | – | – | – | – | – | – |
| CNc1ccc(/C=N/N=C/c2ccc(OCCOCCOCCF)cc2)cc1 [Compound 92] | 46.4 ± 15.5 nM | – | – | – | – | – | – | – | – | – | – | – |
| CN(C)c1ccc(/C=N/N=C/c2ccc(OCCOCCOCCF)nc2)cc1 [Compound 93] | 10.9 ± 0.97 nM | – | – | – | – | – | – | – | – | – | – | – |
| CNc1ccc(/C=N/N=C/c2ccc(OCCOCCOCCF)nc2)cc1 [Compound 94] | 42.9 ± 20.5 nM | – | – | – | – | – | – | – | – | – | – | – |
| CN(C)c1ccc(/C=N/N=C/c2ccc(OCC[18F])cc2)cc1 [[18F]87] | – | 3.98 ± 0.24 % ID/g | 3.36 ± 0.19 % ID/g | 3.00 ± 0.13 % ID/g | 2.73 ± 0.42 % ID/g | 10.66 ± 0.89 % ID/g | 11.00 ± 0.80 % ID/g | 6.69 ± 0.42 % ID/g | 4.56 ± 0.58 % ID/g | cleared faster in the brain of normal mice | can effectively pass through the blood-brain barrier | 2 min |
| CNc1ccc(/C=N/N=C/c2ccc(OCC[18F])cc2)cc1 [[18F]88] | – | 3.32 ± 0.26 % ID/g | 3.57 ± 0.34 % ID/g | 3.31 ± 0.13 % ID/g | 2.90 ± 0.32 % ID/g | 9.21 ± 0.63 % ID/g | 8.24 ± 0.36 % ID/g | 4.81 ± 0.27 % ID/g | 3.02 ± 0.15 % ID/g | cleared faster in the brain of normal mice | can effectively pass through the blood-brain barrier | 2 min |
| CN(C)c1ccc(/C=N/N=C/c2ccc(OCCOCC[18F])cc2)cc1 [[18F]89] | – | 2.95 ± 0.31 % ID/g | 3.24 ± 1.25 % ID/g | 4.78 ± 0.24 % ID/g | 5.42 ± 0.65 % ID/g | 10.88 ± 0.75 % ID/g | 10.62 ± 0.58 % ID/g | 6.06 ± 0.38 % ID/g | 4.55 ± 0.48 % ID/g | cleared faster in the brain of normal mice | can effectively pass through the blood-brain barrier | 2 min |
| CNc1ccc(/C=N/N=C/c2ccc(OCCOCC[18F])cc2)cc1 [[18F]90] | – | 3.72 ± 0.44 % ID/g | 3.85 ± 0.26 % ID/g | 4.90 ± 0.61 % ID/g | 5.44 ± 0.40 % ID/g | 11.05 ± 1.70 % ID/g | 7.81 ± 0.60 % ID/g | 4.92 ± 0.41 % ID/g | 3.97 ± 0.28 % ID/g | cleared faster in the brain of normal mice | can effectively pass through the blood-brain barrier | 2 min |
| CN(C)c1ccc(/C=N/N=C/c2ccc(OCCOCCOCC[18F])cc2)cc1 [[18F]91] | – | 3.08 ± 0.45 % ID/g | 2.86 ± 0.28 % ID/g | 3.83 ± 0.27 % ID/g | 3.66 ± 0.40 % ID/g | 10.39 ± 1.07 % ID/g | 7.56 ± 0.91 % ID/g | 2.93 ± 0.13 % ID/g | 1.60 ± 0.10 % ID/g | cleared faster in the brain of normal mice | can effectively pass through the blood-brain barrier | 2 min |
| CNc1ccc(/C=N/N=C/c2ccc(OCCOCCOCC[18F])cc2)cc1 [[18F]92] | – | 3.81 ± 0.35 % ID/g | 3.06 ± 0.49 % ID/g | 3.26 ± 0.17 % ID/g | 3.05 ± 0.45 % ID/g | 7.84 ± 0.50 % ID/g | 3.94 ± 0.13 % ID/g | 1.88 ± 0.03 % ID/g | 1.17 ± 0.07 % ID/g | cleared faster in the brain of normal mice | can effectively pass through the blood-brain barrier | 2 min |
| CN(C)c1ccc(/C=N/N=C/c2ccc(OCCOCCOCC[18F])nc2)cc1 [[18F]93] | – | 3.53 ± 0.24 % ID/g | 3.16 ± 1.00 % ID/g | 3.64 ± 0.29 % ID/g | 2.46 ± 0.33 % ID/g | 11.39 ± 1.08 % ID/g | 5.55 ± 0.37 % ID/g | 2.41 ± 0.22 % ID/g | 1.44 ± 0.15 % ID/g | cleared faster in the brain of normal mice | can effectively pass through the blood-brain barrier | 2 min |
| CNc1ccc(/C=N/N=C/c2ccc(OCCOCCOCC[18F])nc2)cc1 [[18F]94] | – | 4.30 ± 0.09 % ID/g | 3.40 ± 0.28 % ID/g | 3.66 ± 0.18 % ID/g | 2.59 ± 0.15 % ID/g | 8.59 ± 0.57 % ID/g | 4.09 ± 0.38 % ID/g | 2.40 ± 0.15 % ID/g | 1.36 ± 0.13 % ID/g | cleared faster in the brain of normal mice | can effectively pass through the blood-brain barrier | 2 min |
